In brackets after ≈: the same amount, converted by molar mass. Like-named read-outs stand apart in the source and are kept apart here. Residues, ends and D or L forms follow the SMILES beside them.
Columns and labels:
E. coli biofilm = type: cell-based, E. coli O157:H7; settings: BM2 minimal medium + 0.4% glucose, crystal violet, at least 95% inhibition of mean biofilm growth, at least three independent experiments
Experimental: (§1) Bacterial biofilm inhibition assays were performed using a microtiter assay as described by Haney et al.. For E. cloacae, E. coli, P. aeruginosa and S. Typhimurium, assays were performed using BM2 minimal medium (62 mM potassium phosphate, 7 mM ammonium sulfate, 0.5 mM magnesium sulfate, pH 7.0) supplemented with 0.4% glucose (w/v). Antibiofilm activity against A. baumannii and S. aureus SAP0017 was evaluated in 10% TSB (v/v) media supplemented with 0.1% glucose (w/v), whereas 10% THB (v/v) medium was employed for P. vulgaris.
(§2) Data from at least three independent experiments were analyzed as the percentage of biofilm mass compared to the untreated control. After crystal violet staining, MBIC95 was then calculated for each peptide, defined as the minimal peptide concentration capable of inhibiting mean biofilm growth by at least 95% compared to the untreated control.

K. pneumoniae = assay: MIC, broth microdilution in MHB; type: cell-based, K. pneumoniae KPLN49; settings: first concentration without visible growth, mode of at least three independent experiments
Experimental: (§3) The following bacterial pathogens were used in this study: S. enterica subsp. enterica serovar Typhimurium ATCC 14028, E. coli O157:H7 [83], the clinical isolates S. aureus SAP0017 [84] and USA300 LAC [85], E. faecium #1-1 [85], A. baumannii Ab5075 [85] and E. cloacae 218R1 [85], as well as P. aeruginosa PAO1 [34], P. vulgaris HSC7200-T2 (Hancock Lab strain collection) and K. pneumoniae KPLN49 [85].
(§4) Overnight cultures were grown in LB at 37 °C with shaking at 250 rpm, except for E. faecium, which was grown in BHI medium.
(§5) The antimicrobial activity of the crocCATHs was evaluated with the broth microdilution method as described previously. MIC was defined as the first peptide or antibiotic concentration without visible bacterial growth. Reported values are the statistical mode of at least three independent experiments.

A. baumannii = assay: MIC, broth microdilution in MHB; type: cell-based, A. baumannii Ab5075; settings: first concentration without visible growth, mode of at least three independent experiments
Experimental: as §3, §4, §5

P. aeruginosa = assay: MIC, broth microdilution in MHB; type: cell-based, P. aeruginosa PAO1; settings: first concentration without visible growth, mode of at least three independent experiments
Experimental: as §3, §4, §5

E. faecium = assay: MIC, broth microdilution in MHB; type: cell-based, E. faecium #1-1; settings: first concentration without visible growth, mode of at least three independent experiments
Experimental: as §3, §4, §5

P. vulgaris = type: cell-based, P. vulgaris HSC7200-T2; settings: microdilution in MHB, first concentration without visible growth, mode of at least three independent experiments
Experimental: as §3, §4, §5

E. coli = type: cell-based, E. coli O157:H7; settings: microdilution in MHB, first concentration without visible growth, mode of at least three independent experiments
Experimental: as §3, §4, §5

S. aureus = assay: MIC, broth microdilution in MHB; type: cell-based; settings: first concentration without visible growth, mode of at least three independent experiments
Experimental: as §3, §4, §5

P. aeruginosa biofilm = type: cell-based, P. aeruginosa PAO1
Experimental: as §1, §2

S. Typhimurium = type: cell-based, S. enterica subsp. enterica serovar Typhimurium ATCC 14028
Experimental: as §3, §4, §5

E. cloacae = type: cell-based, E. cloacae 218R1
Experimental: as §3, §4, §5

[1] = tested on: peripheral blood mononuclear cells (PBMCs); assay: LDH release cytotoxicity assay; type: cell-based; settings: human PBMCs; at the highest concentrations tested (5 and 10 μM); relative to Triton X-100 control
Experimental: Human PBMCs were isolated from human blood following the ethics protocols of the University of British Columbia, Canada. Consent was obtained from healthy volunteers before blood donation. Isolation and treatment of unstimulated PBMC was performed as previously described.
(§6) Peptide-induced cytotoxicity was assessed by measuring the extracellular activity of the LDH enzyme using the Cytotoxicity Detection Kit (MilliporeSigma, Burlington, MA, USA) as previously described. The percentage of LDH release relative to the untreated (negative) and Triton X-100 (positive, 100% cytotoxicity) control was assessed for at least three biological replicates and recorded as percent cytotoxicity.

[2] = tested on: human bronchial epithelial (HBE) cells; assay: LDH release cytotoxicity assay; type: cell-based; settings: HBE cells (16HBE14o-); at the highest concentrations tested (5 and 10 μM); relative to Triton X-100 control
Experimental: Immortalized human bronchial epithelial (HBE) cells (16HBE14o-) were used for in vitro cytotoxicity experiments as described elsewhere.
as §6

[3] = subcutaneous, 15 mg/kg, peptide alone, uninfected animals
Excerpt: The antibacterial capacities of As-CATH8 and Gg-CATH5 were further evaluated in the murine skin infection/abscess model. Mice were inoculated with clinical isolates of S. aureus and A. baumannii, two frequent causes of human skin infections. […] Therefore, the peptides were considered non-toxic at the doses used.

Compound | MBIC95 (E. coli biofilm) | MIC (K. pneumoniae) | MIC (A. baumannii) | MIC (P. aeruginosa) | MIC (E. faecium) | MIC (P. vulgaris) | MIC (E. coli) | MIC (S. aureus) | MBIC95 (P. aeruginosa biofilm) | MIC (S. Typhimurium) | MIC (E. cloacae) | Cytotoxicity (LDH release) [1] | Cytotoxicity (LDH release) [2] | Tissue damage or peptide precipitation at the site of injection [3] | MIC (S. Typhimurium; S. Typhimurium, microdilution in MHB, value in brackets of Table S4)
CC[C@H](C)[C@H](NC(=O)[C@H](C)NC(=O)CNC(=O)[C@H](CC(N)=O)NC(=O)[C@H](CC(C)C)NC(=O)[C@@H](NC(=O)[C@H](CCCCN)NC(=O)[C@H](CCCCN)NC(=O)[C@H](Cc1c[nH]c2ccccc12)NC(=O)[C@H](Cc1c[nH]c2ccccc12)NC(=O)[C@H](CCCCN)NC(=O)[C@H](CCCNC(=N)N)NC(=O)[C@H](CCCNC(=N)N)NC(=O)[C@@H](N)[C@@H](C)O)C(C)C)C(=O)N[C@@H](CCCCN)C(=O)N[C@H](C(=O)N[C@@H](C)C(=O)N1CCC[C@H]1C(=O)N[C@@H](Cc1ccc(O)cc1)C(=O)N[C@H](C(=O)N[C@@H](CC(C)C)C(=O)N[C@@H](CC(=O)O)C(=O)O)[C@@H](C)CC)[C@@H](C)CC [Gg-CATH5] (H-TRRKWWKKVLNGAIKIAPYILD-OH) | 32 µM | 0.5 µM (≈ 1.34 µg/mL) | 0.5 µM (≈ 1.34 µg/mL) | 1 µM (≈ 2.67 µg/mL) | >64 µM | 8 µM (≈ 21.4 µg/mL) | 4 µM (≈ 10.7 µg/mL) | 1 µM (≈ 2.67 µg/mL) |  |  |  |  |  |  | 
CSCC[C@H](NC(=O)[C@@H](NC(=O)[C@H](Cc1ccc(O)cc1)NC(=O)[C@H](CO)NC(=O)[C@H](C)NC(=O)CNC(=O)[C@H](CC(C)C)NC(=O)CNC(=O)[C@@H](NC(=O)[C@H](CCCCN)NC(=O)[C@H](CCCNC(=N)N)NC(=O)[C@H](Cc1c[nH]c2ccccc12)NC(=O)[C@H](CC(N)=O)NC(=O)[C@@H](NC(=O)[C@H](CCCNC(=N)N)NC(=O)[C@@H](N)CCCCN)C(C)C)C(C)C)C(C)C)C(=O)N[C@@H](CO)C(=O)N[C@@H](Cc1c[nH]c2ccccc12)C(=O)N[C@@H](CC(C)C)C(=O)NCC(=O)O [Gg-CATH7] (H-KRVNWRKVGLGASYVMSWLG-OH) |  |  |  |  |  |  |  |  | > 148 µg/mL | 4 µM | 2 µM (≈ 4.62 µg/mL) |  |  |  | 
VRLIVAVRIWRR-NH2 [IDR-1018, immunomodulatory peptide used as control] |  |  |  |  |  |  |  |  |  |  |  | low cytotoxicity | low cytotoxicity |  | 
CC[C@H](C)[C@H](NC(=O)[C@H](Cc1ccc(O)cc1)NC(=O)[C@@H]1CCCN1C(=O)[C@H](CC(C)C)NC(=O)[C@H](CC(C)C)NC(=O)[C@H](CCCCN)NC(=O)[C@H](CC(C)C)NC(=O)[C@H](C)NC(=O)[C@@H](NC(=O)[C@H](CCCNC(=N)N)NC(=O)CNC(=O)[C@@H](NC(=O)[C@H](CCCCN)NC(=O)[C@H](C)NC(=O)[C@H](Cc1c[nH]c2ccccc12)NC(=O)[C@H](CC(N)=O)NC(=O)[C@@H](NC(=O)[C@H](CCCNC(=N)N)NC(=O)[C@@H](N)CCCCN)C(C)C)C(C)C)[C@@H](C)O)C(=O)N[C@@H](Cc1ccccc1)C(=O)NCC(=O)O [As-CATH8] (H-KRVNWAKVGRTALKLLPYIFG-OH) | 1 µM | 0.5 µM (≈ 1.22 µg/mL) | 0.25 µM (≈ 0.608 µg/mL) | 1 µM (≈ 2.43 µg/mL) | >64 µM | 4 µM (≈ 9.72 µg/mL) | 1 µM (≈ 2.43 µg/mL) | 0.5 µM (≈ 1.22 µg/mL) |  | 1 µM | 0.5 µM (≈ 1.22 µg/mL) |  |  |  | 
CC[C@H](C)[C@H](NC(=O)[C@H](CCCCN)NC(=O)[C@H](CCC(=O)O)NC(=O)[C@H](CCCCN)NC(=O)[C@H](CO)NC(=O)[C@H](CCCCN)NC(=O)[C@H](CCCNC(=N)N)NC(=O)[C@H](Cc1ccccc1)NC(=O)[C@H](Cc1ccccc1)NC(=O)[C@H](CC(=O)O)NC(=O)CNC(=O)[C@H](CC(C)C)NC(=O)[C@@H](N)CC(C)C)C(=O)NCC(=O)N[C@@H](CCCCN)C(=O)N[C@@H](CCC(=O)O)C(=O)N[C@@H](Cc1ccccc1)C(=O)N[C@@H](CCCCN)C(=O)N[C@@H](CCCNC(=N)N)C(=O)N[C@H](C(=O)N[C@H](C(=O)N[C@@H](CCC(N)=O)C(=O)N[C@@H](CCCNC(=N)N)C(=O)N[C@H](C(=O)N[C@@H](CCCCN)C(=O)N[C@@H](CC(=O)O)C(=O)N[C@@H](Cc1ccccc1)C(=O)N[C@@H](CC(C)C)C(=O)N[C@@H](CCCNC(=N)N)C(=O)N[C@@H](CC(N)=O)C(=O)N[C@@H](CC(C)C)C(=O)N[C@H](C(=O)N1CCC[C@H]1C(=O)N[C@@H](CCCNC(=N)N)C(=O)N[C@H](C(=O)N[C@@H](CCC(=O)O)C(=O)N[C@@H](CO)C(=O)O)[C@@H](C)O)C(C)C)[C@@H](C)CC)C(C)C)[C@@H](C)CC [LL-37] |  |  |  |  |  |  |  |  |  |  |  | moderately cytotoxic | moderately cytotoxic | no evidence of tissue damage or peptide precipitation | 72 µg/mL
CC(C)C[C@H](NC(=O)[C@H](C)NC(=O)[C@@H](NC(=O)[C@H](CC(N)=O)NC(=O)[C@H](CCCNC(=N)N)NC(=O)CNC(=O)[C@@H](NC(=O)[C@H](CCCCN)NC(=O)[C@H](CCCNC(=N)N)NC(=O)[C@H](Cc1c[nH]c2ccccc12)NC(=O)[C@H](CC(N)=O)NC(=O)[C@@H](NC(=O)[C@H](CCCNC(=N)N)NC(=O)[C@@H](N)CCCCN)C(C)C)C(C)C)[C@@H](C)O)C(=O)NCC(=O)N[C@@H](C)C(=O)N[C@@H](CO)C(=O)N[C@@H](Cc1ccc(O)cc1)C(=O)N[C@H](C(=O)N[C@@H](CC(C)C)C(=O)N[C@@H](CO)C(=O)N[C@@H](Cc1ccccc1)C(=O)N[C@@H](CC(C)C)C(=O)NCC(=O)O)C(C)C [As-CATH7] (H-KRVNWRKVGRNTALGASYVLSFLG-OH) | 32 µM | 1 µM (≈ 2.69 µg/mL) | 0.25 µM (≈ 0.673 µg/mL) | 4 µM (≈ 10.8 µg/mL) | >64 µM | >64 µM | 2 µM (≈ 5.39 µg/mL) | 4 µM (≈ 10.8 µg/mL) | > 172 µg/mL | 2 µM | 0.5 µM (≈ 1.35 µg/mL) |  |  |  | 
